Usually MIC stands for the lowest concentration that inhibits growth of the organism. High values mean weaker potency, low ones greater potency.

Bounds are passed on as bounds.

1 compound from US8962842B2, “2-pyridone antimicrobial compositions” (priority 2010, dated 2015) can be followed below.

The test system of this assay is Staphylococcus aureus, quinolone-resistant strains (Quotient Bioresearch catalogue). Kind of assay: MIC against pathogens resistant against quinolones (Table 5). As to conditions: strain GP82, Staphylococcus aureus levofloxacin-resistant clinical isolate, amino acid changes GrlA, GrlB & GyrA.

With `Cc1c(-c2ccc3[nH]ncc3c2)ccn2c(=O)c(C(=O)[O-])cc(C3CC3)c12.[K+]` [Example 23 K salt, potassium 1-cyclopropyl-8-(1H-indazol-5-yl)-9-methyl-4-oxo-4H-quinolizine-3-carboxylate], the MIC is at most 0.015 µg/mL.
